Data: paper PMC4832822, “Investigating the Influence of (Deoxy)fluorination on the Lipophilicity of Non‐UV‐Active Fluorinated Alkanols and Carbohydrates by a New log P Determination Method” (Angewandte Chemie (International Ed. in English), 2015)
Values joined by “and” are separate entries in the source; they are usually repeats but may differ in a detail not shown here. Equal values may be shown once. Read-outs that look alike come from different tables or passages of the source.

What was measured:
[1] = log P determination by 19F NMR shake-flask method with internal fluorinated reference (octanol/water); settings: for ΔlogP (exp. logP vs logP lit): Table SI12
[2] = cited from earlier work
[3] = milogP calculated using Molinspiration Cheminformatics; settings: Table SI14
[4] = octanol/water, Average logP, 25 °C, reference TFE (+0.36)
[5] = octanol/water, error (mean logP to three decimals), reference TFE (+0.36)
[6] = octanol/water, logP, 19F NMR, 25 °C, average value
[7] = octanol/water, logP, single experiment, reference TFE (+0.36)

Average logP ([1]; 25 °C, reference TFE (+0.36)) | ΔlogP (exp. logP vs logP lit) [1] | logP [1, 4] | logP [1, 5] | logP [1, 6] | logP [1, 7] | ΔlogP (milogP vs logP exp) [3] | Structure (SMILES) | further results
+1.20 | -0.03 | 1.2 | 1.2 | 1.2 | 1.2 | +0.05 | OCC(F)(F)C(F)(F)F [compound 13, CF3CF2CH2OH] | logP ([1]; octanol/water, average logP, mA 2.0 mg, mREF 0.8 mg, reference CF3CH2OH): 1.2; logP ([1]; octanol/water, average logP, mA 10.0 mg, mREF 4.0 mg): 1.2; logP ([1]; octanol/water, average logP, mA 70.0 mg, mREF 30.0/70.0 mg): 1.18; logP ([1]; octanol/water, average logP, mA 120.0 mg, mREF 60.0 mg): 1.18; logP ([1]; octanol/water, logP, single experiment, mA 2.0 mg, mREF 0.8 mg, reference CF3CH2OH): 1.2; logP ([1]; octanol/water, logP, single experiment, mA 10.0 mg, mREF 4.0 mg): 1.2; logP ([1]; octanol/water, logP, single experiment, mA 70.0 mg, mREF 30.0/70.0 mg): 1.18; logP ([1]; octanol/water, logP, single experiment, mA 120.0 mg, mREF 60.0 mg): 1.17; mean logP ([1]; reference TFE (+0.36)): 1.200; logP ([1]; single experiment, mA 2.0 mg, mREF 0.8 mg, reference CF3CH2OH): 1.200; logP ([1]; single experiment, mA 10.0 mg, mREF 4.0 mg): 1.200 and 1.195; logP ([1]; single experiment, mA 70.0 mg, mREF 30.0/70.0 mg): 1.179; logP ([1]; single experiment, mA 120.0 mg, mREF 60.0 mg): 1.178 and 1.174; logP ([1]; single experiment, reference TFE (+0.36)): +1.200 and +1.199; logP (lit) ([2]; ref chemidplus database, Hansch, Leo 1979 and Leo, Elkins, Chem. Rev. 1971): 1.23
+0.91 | +0.01 | 0.91 | 0.91 | 0.91 | 0.918 | +0.24 | OCCCC(F)(F)F [compound 23, 4,4,4-trifluoro-1-butanol] | logP ([1]; octanol/water, 19F NMR, 25 °C, average value): +0.91; logP (lit) ([2]; ref chemidplus database and N. Muller 1986): +0.90
+1.22 | +0.07 | 1.22 | 1.22 | 1.22 | 1.22 | +0.43 | OCCCCC(F)(F)F [compound 35] | logP (lit) ([2]; shake-flask, 1H or 19F NMR, temperature not reported, ref N. Muller, J. Pharm. Sci. 1986): +1.15
